Measured values from US20240246942A1, “KINASE INHIBITORS FOR THE TREATMENT OF NEURODEGENERATIVE DISEASES” (priority 2020, published 2024).

Legend:
Assay in all cases: biochemical
[1] = biological target: T1, panel of 374 wild-type kinases (Homo sapiens, UniProt P06241); conditions: read-out: % Enzyme Activity (relative to DMSO controls), FYN
T1 construct: purchased Reaction Biology Corporation

[2] = biological target: T2, panel of 374 wild-type kinases (Homo sapiens, UniProt P54762); conditions: read-out: % Enzyme Activity (relative to DMSO controls), EPHB1
T2 construct: purchased Reaction Biology Corporation
T2 sequence (P54762 18-984): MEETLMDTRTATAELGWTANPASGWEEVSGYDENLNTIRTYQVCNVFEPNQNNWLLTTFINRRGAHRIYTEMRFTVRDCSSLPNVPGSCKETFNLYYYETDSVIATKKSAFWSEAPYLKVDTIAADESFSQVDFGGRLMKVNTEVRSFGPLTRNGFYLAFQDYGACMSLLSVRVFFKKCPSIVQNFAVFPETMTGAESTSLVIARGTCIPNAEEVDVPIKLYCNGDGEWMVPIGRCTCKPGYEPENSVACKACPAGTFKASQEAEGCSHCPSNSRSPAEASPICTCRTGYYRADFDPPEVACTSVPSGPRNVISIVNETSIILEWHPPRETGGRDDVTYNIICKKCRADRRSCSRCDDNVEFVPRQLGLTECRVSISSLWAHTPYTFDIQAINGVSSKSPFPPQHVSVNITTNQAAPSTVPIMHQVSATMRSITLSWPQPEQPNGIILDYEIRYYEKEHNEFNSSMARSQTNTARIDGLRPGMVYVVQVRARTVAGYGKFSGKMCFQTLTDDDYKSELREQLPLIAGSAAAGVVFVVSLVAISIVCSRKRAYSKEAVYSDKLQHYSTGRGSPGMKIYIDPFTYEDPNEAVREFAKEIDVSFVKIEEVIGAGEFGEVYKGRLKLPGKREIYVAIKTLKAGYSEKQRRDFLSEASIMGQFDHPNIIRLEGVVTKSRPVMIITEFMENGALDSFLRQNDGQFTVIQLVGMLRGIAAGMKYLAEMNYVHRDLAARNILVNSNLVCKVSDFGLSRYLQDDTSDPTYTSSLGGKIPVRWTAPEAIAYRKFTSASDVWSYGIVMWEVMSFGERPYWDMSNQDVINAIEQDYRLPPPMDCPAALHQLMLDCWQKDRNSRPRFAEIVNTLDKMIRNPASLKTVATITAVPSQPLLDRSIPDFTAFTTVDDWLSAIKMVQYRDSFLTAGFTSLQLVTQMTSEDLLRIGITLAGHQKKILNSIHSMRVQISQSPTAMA

[3] = biological target: T3, panel of 374 wild-type kinases (Homo sapiens, UniProt O60674); conditions: read-out: % Enzyme Activity (relative to DMSO controls), JAK2
T3 construct: purchased Reaction Biology Corporation
T3 sequence (O60674 whole entry): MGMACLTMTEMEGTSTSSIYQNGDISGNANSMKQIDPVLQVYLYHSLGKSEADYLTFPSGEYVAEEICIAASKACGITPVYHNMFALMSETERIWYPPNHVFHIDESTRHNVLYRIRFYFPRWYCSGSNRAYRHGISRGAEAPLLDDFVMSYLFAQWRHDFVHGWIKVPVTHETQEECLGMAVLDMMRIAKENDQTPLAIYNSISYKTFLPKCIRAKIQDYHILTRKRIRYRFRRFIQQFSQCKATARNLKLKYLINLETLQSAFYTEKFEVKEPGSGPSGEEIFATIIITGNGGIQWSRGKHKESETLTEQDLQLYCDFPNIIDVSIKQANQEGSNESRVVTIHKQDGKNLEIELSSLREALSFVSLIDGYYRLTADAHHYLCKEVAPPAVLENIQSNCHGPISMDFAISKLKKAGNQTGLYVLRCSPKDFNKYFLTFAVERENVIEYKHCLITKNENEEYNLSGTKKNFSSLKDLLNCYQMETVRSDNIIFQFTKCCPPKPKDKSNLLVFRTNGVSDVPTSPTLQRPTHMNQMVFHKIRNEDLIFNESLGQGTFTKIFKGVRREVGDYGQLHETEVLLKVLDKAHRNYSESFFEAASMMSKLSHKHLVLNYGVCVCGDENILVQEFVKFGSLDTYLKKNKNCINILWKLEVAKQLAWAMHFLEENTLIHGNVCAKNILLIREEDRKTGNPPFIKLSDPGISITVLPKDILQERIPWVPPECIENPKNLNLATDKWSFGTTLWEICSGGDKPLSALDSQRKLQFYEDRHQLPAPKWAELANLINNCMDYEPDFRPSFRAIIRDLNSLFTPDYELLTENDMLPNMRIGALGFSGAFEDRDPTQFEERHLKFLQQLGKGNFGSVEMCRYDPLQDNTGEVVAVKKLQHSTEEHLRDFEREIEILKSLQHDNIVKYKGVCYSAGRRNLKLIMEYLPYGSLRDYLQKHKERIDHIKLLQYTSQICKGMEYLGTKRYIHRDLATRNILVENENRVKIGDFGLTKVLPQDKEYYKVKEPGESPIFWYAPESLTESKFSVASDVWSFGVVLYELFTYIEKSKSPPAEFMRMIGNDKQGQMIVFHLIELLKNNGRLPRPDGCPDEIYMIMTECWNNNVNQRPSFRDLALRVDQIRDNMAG

[4] = biological target: T4, panel of 374 wild-type kinases (Homo sapiens, UniProt P41743); conditions: read-out: % Enzyme Activity (relative to DMSO controls), kinase PKCiota
T4 construct: purchased Reaction Biology Corporation
T4 sequence (P41743 1-596): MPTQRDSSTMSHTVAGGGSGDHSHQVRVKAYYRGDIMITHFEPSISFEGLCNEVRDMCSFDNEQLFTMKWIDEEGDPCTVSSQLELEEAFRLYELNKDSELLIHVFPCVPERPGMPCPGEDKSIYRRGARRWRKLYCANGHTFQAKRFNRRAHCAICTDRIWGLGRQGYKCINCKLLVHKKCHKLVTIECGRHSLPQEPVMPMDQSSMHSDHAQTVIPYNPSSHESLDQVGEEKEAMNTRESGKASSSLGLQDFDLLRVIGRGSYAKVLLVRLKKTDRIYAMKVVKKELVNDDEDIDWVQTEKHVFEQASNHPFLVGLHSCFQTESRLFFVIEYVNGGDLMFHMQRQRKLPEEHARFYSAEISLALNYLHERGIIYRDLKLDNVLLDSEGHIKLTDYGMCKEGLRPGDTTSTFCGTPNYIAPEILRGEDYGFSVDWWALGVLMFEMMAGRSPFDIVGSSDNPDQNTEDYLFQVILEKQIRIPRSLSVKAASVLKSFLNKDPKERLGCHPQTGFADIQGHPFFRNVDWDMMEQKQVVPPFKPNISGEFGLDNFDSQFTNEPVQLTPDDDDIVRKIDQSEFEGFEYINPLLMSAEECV

[5] = biological target: T5, panel of 374 wild-type kinases (Homo sapiens, UniProt P27448); conditions: read-out: % Enzyme Activity (relative to DMSO controls), MARK3
T5 construct: purchased Reaction Biology Corporation
T5 sequence (P27448 whole entry): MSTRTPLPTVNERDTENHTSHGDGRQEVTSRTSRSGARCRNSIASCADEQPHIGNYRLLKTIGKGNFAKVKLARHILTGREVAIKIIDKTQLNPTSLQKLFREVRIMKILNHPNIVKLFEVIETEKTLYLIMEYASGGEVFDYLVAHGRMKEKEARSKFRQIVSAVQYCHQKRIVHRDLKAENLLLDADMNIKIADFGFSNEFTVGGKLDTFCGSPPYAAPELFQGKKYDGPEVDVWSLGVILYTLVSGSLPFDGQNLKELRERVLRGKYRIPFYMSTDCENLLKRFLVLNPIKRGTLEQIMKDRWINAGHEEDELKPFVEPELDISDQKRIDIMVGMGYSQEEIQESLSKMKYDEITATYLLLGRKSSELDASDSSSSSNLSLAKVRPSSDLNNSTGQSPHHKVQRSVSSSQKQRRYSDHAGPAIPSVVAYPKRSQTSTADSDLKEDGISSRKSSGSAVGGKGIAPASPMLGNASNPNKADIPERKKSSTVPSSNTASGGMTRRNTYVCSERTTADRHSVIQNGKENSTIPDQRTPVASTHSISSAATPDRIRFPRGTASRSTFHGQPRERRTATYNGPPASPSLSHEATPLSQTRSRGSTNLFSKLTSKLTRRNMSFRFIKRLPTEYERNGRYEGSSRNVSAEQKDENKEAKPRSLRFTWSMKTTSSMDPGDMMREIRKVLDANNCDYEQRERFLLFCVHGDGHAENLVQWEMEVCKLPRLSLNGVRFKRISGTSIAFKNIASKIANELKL

T1 sequence (P06241 whole entry): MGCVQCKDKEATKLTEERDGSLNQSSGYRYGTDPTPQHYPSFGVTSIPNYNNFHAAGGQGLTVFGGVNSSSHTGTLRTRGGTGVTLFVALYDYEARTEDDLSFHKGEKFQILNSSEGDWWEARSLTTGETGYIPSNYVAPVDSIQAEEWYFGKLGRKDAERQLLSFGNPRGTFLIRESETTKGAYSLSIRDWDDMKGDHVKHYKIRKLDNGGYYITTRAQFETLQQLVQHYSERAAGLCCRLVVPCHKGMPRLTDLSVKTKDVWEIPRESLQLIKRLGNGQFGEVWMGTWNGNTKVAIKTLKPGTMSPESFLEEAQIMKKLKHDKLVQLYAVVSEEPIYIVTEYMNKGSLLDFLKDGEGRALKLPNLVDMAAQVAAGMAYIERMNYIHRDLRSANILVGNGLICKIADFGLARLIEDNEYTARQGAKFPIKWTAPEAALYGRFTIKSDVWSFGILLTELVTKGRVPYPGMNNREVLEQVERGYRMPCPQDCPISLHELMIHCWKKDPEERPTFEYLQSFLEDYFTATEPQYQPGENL

O=C(Nc1cnn(-c2csc(C(=O)NC3COC3)c2)c1)Nc1ccccc1Cl [Compound 17, 4-(4-(3-(2-chlorophenyl)ureido)-1H-pyrazol-1-yl)-N-(oxetan-3-yl)thiophene-2-carboxamide]
remaining activity at 5 µM [1]: 97.8%
remaining activity at 5 µM [2]: 100%
remaining activity at 5 µM [3]: 98.2%
remaining activity at 5 µM [4]: 95.5%
remaining activity at 5 µM [5]: 98.2%

Cc1sc(C(=O)NC2COC2)cc1-n1cc(NC(=O)Nc2c(F)cccc2Cl)cn1 [Compound 27, 4-(4-(3-(2-chloro-6-fluorophenyl)ureido)-1H-pyrazol-1-yl)-5-methyl-N-(oxetan-3-yl)thiophene-2-carboxamide]
remaining activity at 10 µM ([1]; 10 uM): 99.8%
remaining activity at 10 µM ([2]; 10 uM): 100%
remaining activity at 10 µM ([3]; 10 uM): 95%
remaining activity at 10 µM ([4]; 10 uM): 90.8%
remaining activity at 10 µM ([5]; 10 uM): 102%

O=C(Nc1cnn(-c2csc(C(=O)NC3COC3)c2)c1)Nc1c(F)cccc1Cl [Compound 25, 4-(4-(3-(2-chloro-6-fluorophenyl)ureido)-1H-pyrazol-1-yl)-N-(oxetan-3-yl)thiophene-2-carboxamide]
remaining activity at 5 µM [1]: 90.3%
remaining activity at 5 µM [2]: 96.1%
remaining activity at 5 µM [3]: 96.5%
remaining activity at 5 µM [4]: 87.4%
remaining activity at 5 µM [5]: 99.3%
